{"source": "patent US20210353593A1", "about": "(Chinook Therapeutics, Inc., priority 2019, published 2021)", "tested_on": "kidney tissue of g-ddY mice", "key": {"[1]": {"conditions": "10 mg/kg/day vs untreated control"}}, "note": "Where two headings read alike, the source gives them in different places."}
{"smiles": "CCCCN(CCCC)C(=O)CN1C[C@H](c2ccc3c(c2)OCO3)[C@@H](C(=O)O)[C@@H]1c1ccc(OC)cc1", "note": "[Atrasentan, (2R,3R,4S)-4-(1,3-benzodioxol-5-yl)-1-[2-(dibutylamino)-2-oxoethyl]-2-(4-methoxyphenyl)pyrrolidine-3-carboxylic acid]", "values": [{"measurement": "number of downregulated genes", "setting": "10 mg/kg/day versus control", "result": 15, "unit": "genes"}, {"measurement": "number of upregulated genes", "setting": "10 mg/kg/day versus control", "result": 25, "unit": "genes"}, {"measurement": "Acnat2 logFC", "setting": "10 mg/kg/day vs control", "result": 0.9174}, {"measurement": "Apoc1 logFC", "setting": "10 mg/kg/day vs control", "result": "−1.929"}, {"measurement": "Arnt1 logFC", "setting": "10 mg/kg/day vs control", "result": 1.039}, {"measurement": "Asl logFC", "setting": "10 mg/kg/day vs control", "result": 0.707}, {"measurement": "Bckdha logFC", "setting": "10 mg/kg/day vs control", "result": 0.5492}, {"measurement": "Bmp6 logFC", "setting": "10 mg/kg/day vs control", "result": 0.7141}, {"measurement": "Ccn1 logFC", "setting": "10 mg/kg/day vs control", "result": "−1.087"}, {"measurement": "Ccn2 logFC", "setting": "10 mg/kg/day vs control", "result": "−0.5379"}, {"measurement": "Cish logFC", "setting": "10 mg/kg/day vs control", "result": "−1.301"}, {"measurement": "Cryl1 logFC", "setting": "10 mg/kg/day vs control", "result": 0.5206}, {"measurement": "Dbp logFC", "setting": "10 mg/kg/day vs control", "result": "−1.205"}, {"measurement": "Dpep1 logFC", "setting": "10 mg/kg/day vs control", "result": 0.6476}, {"measurement": "Ethe1 logFC", "setting": "10 mg/kg/day vs control", "result": 0.941}, {"measurement": "Filipl1 logFC", "setting": "10 mg/kg/day vs control", "result": "−0.8186"}, {"measurement": "Frmd4b logFC", "setting": "10 mg/kg/day vs control", "result": 0.6863}, {"measurement": "Gapdh logFC", "setting": "10 mg/kg/day vs control", "result": 0.6257}, {"measurement": "Gem logFC", "setting": "10 mg/kg/day vs control", "result": "−1.508"}, {"measurement": "Gm15910 logFC", "setting": "10 mg/kg/day vs control", "result": "−1.397"}, {"measurement": "Hacl1 logFC", "setting": "10 mg/kg/day vs control", "result": 0.6805}, {"measurement": "Igf1 logFC", "setting": "10 mg/kg/day vs control", "result": "−0.8723"}, {"measurement": "Mapt logFC", "setting": "10 mg/kg/day vs control", "result": 0.7035}, {"measurement": "Mef2c logFC", "setting": "10 mg/kg/day vs control", "result": "−0.6217"}, {"measurement": "Mmd logFC", "setting": "10 mg/kg/day vs control", "result": "−1.012"}, {"measurement": "Mnt logFC", "setting": "10 mg/kg/day vs control", "result": 0.6669}, {"measurement": "Ndrg1 logFC", "setting": "10 mg/kg/day vs control", "result": 0.9887}, {"measurement": "Npas2 logFC", "setting": "10 mg/kg/day vs control", "result": 1.415}, {"measurement": "Nr4a1 logFC", "setting": "10 mg/kg/day vs control", "result": "−1.525"}, {"measurement": "Pde3b logFC", "setting": "10 mg/kg/day vs control", "result": "−0.6611"}, {"measurement": "Pdzd3 logFC", "setting": "10 mg/kg/day vs control", "result": 0.7268}, {"measurement": "Pdzk1ip1 logFC", "setting": "10 mg/kg/day vs control", "result": 0.5308}, {"measurement": "Pfkffb3 logFC", "setting": "10 mg/kg/day vs control", "result": "−1.166"}, {"measurement": "S100g logFC", "setting": "10 mg/kg/day vs control", "result": 0.7546}, {"measurement": "Sirt3 logFC", "setting": "10 mg/kg/day vs control", "result": 0.7376}, {"measurement": "Slc5a2 logFC", "setting": "10 mg/kg/day vs control", "result": 0.7478}, {"measurement": "Slc6a19 logFC", "setting": "10 mg/kg/day vs control", "result": 0.8567}, {"measurement": "Slc7a9 logFC", "setting": "10 mg/kg/day vs control", "result": 0.5456}, {"measurement": "Slc16a1 logFC", "setting": "10 mg/kg/day vs control", "result": 0.9808}, {"measurement": "Slc19a1 logFC", "setting": "10 mg/kg/day vs control", "result": 0.6451}, {"measurement": "Slc34a3 logFC", "setting": "10 mg/kg/day vs control", "result": 0.8923}, {"measurement": "Zeb2 logFC", "setting": "10 mg/kg/day vs control", "result": "−0.5638"}, {"measurement": "ET1 gene signature genes downregulated", "setting": "[1]", "result": "Grk5, Mllt3, Klf2, Pparg, Hgf, Edn1, Fos, Ptgs2, and IL-1b"}, {"measurement": "ET1 gene signature genes upregulated", "setting": "[1]", "result": "Ccnd1, Ppara, Agt, Map2k2 and Hoxa9"}, {"measurement": "number of downregulated genes", "setting": "20 mg/kg/day versus control", "result": 281, "unit": "genes"}, {"measurement": "number of upregulated genes", "setting": "20 mg/kg/day versus control", "result": 214, "unit": "genes"}, {"measurement": "1700101I11Rik logFC", "setting": "20 mg/kg/day vs control", "result": 1.658}, {"measurement": "A530016L24Rik logFC", "setting": "20 mg/kg/day vs control", "result": "−3.027"}, {"measurement": "Abcd2 logFC", "setting": "20 mg/kg/day vs control", "result": "−2.686"}, {"measurement": "Adcy2 logFC", "setting": "20 mg/kg/day vs control", "result": "−2.484"}, {"measurement": "Ankef1 logFC", "setting": "20 mg/kg/day vs control", "result": "−3.382"}, {"measurement": "Apol6 logFC", "setting": "20 mg/kg/day vs control", "result": "−3.616"}, {"measurement": "Aspdh logFC", "setting": "20 mg/kg/day vs control", "result": 0.9646}, {"measurement": "Bche logFC", "setting": "20 mg/kg/day vs control", "result": "−4.062"}, {"measurement": "C5ar2 logFC", "setting": "20 mg/kg/day vs control", "result": "−4.271"}, {"measurement": "Cadm3 logFC", "setting": "20 mg/kg/day vs control", "result": "−2.439"}, {"measurement": "Ccl8 logFC", "setting": "20 mg/kg/day vs control", "result": "−2.999"}, {"measurement": "Ccl20 logFC", "setting": "20 mg/kg/day vs control", "result": "−3.563"}, {"measurement": "Clec2h logFC", "setting": "20 mg/kg/day vs control", "result": 1.078}, {"measurement": "Cndp1 logFC", "setting": "20 mg/kg/day vs control", "result": 0.9373}, {"measurement": "Dio2 logFC", "setting": "20 mg/kg/day vs control", "result": "−3.823"}, {"measurement": "Dnase1 logFC", "setting": "20 mg/kg/day vs control", "result": 1.086}, {"measurement": "Ebf2 logFC", "setting": "20 mg/kg/day vs control", "result": "−3.715"}, {"measurement": "Fcamr logFC", "setting": "20 mg/kg/day vs control", "result": 1.182}, {"measurement": "Frs3 logFC", "setting": "20 mg/kg/day vs control", "result": 1.094}, {"measurement": "Ftcd logFC", "setting": "20 mg/kg/day vs control", "result": 1.086}, {"measurement": "Glis1 logFC", "setting": "20 mg/kg/day vs control", "result": 0.8776}, {"measurement": "Hao2 logFC", "setting": "20 mg/kg/day vs control", "result": 0.9855}, {"measurement": "Hrg logFC", "setting": "20 mg/kg/day vs control", "result": 4.888}, {"measurement": "Igibp1 logFC", "setting": "20 mg/kg/day vs control", "result": 2.82}, {"measurement": "Il1b logFC", "setting": "20 mg/kg/day vs control", "result": "−3.029"}, {"measurement": "Iv1 logFC", "setting": "20 mg/kg/day vs control", "result": "−3.8887"}, {"measurement": "Klf15 logFC", "setting": "20 mg/kg/day vs control", "result": 0.8799}, {"measurement": "Krt5 logFC", "setting": "20 mg/kg/day vs control", "result": "−3.044"}, {"measurement": "Lep logFC", "setting": "20 mg/kg/day vs control", "result": "−5.905"}, {"measurement": "Lgals12 logFC", "setting": "20 mg/kg/day vs control", "result": "−2.536"}, {"measurement": "Lhx1 logFC", "setting": "20 mg/kg/day vs control", "result": 0.9258}, {"measurement": "Ly6d logFC", "setting": "20 mg/kg/day vs control", "result": "−3.377"}, {"measurement": "Morn2 logFC", "setting": "20 mg/kg/day vs control", "result": 0.9375}, {"measurement": "Nat81 logFC", "setting": "20 mg/kg/day vs control", "result": "−3.263"}, {"measurement": "Ndrg1 logFC", "setting": "20 mg/kg/day vs control", "result": 0.8946}, {"measurement": "Npas2 logFC", "setting": "20 mg/kg/day vs control", "result": 1.012}, {"measurement": "Otop1 logFC", "setting": "20 mg/kg/day vs control", "result": "−5.808"}]}
